From patent US20130236966A1, “NK-1 Receptor Mediated Delivery of Agents to Cells” (THE UNIVERSITY OF CHICAGO, priority 2007, published 2013)
Ends that are not written are not given here. Alexa555 = Alexa Fluor 555 thiol-reactive fluorophore

Key:
[1] = system: normal human astrocytes (NHA); test: confocal microscopy of internalization in normal human astrocytes; format: cell-based; conditions: FIG. 3c
Experimental: (§1) Cell lines: U87 human glioblastoma-astrocytoma epithelial-like cells (provided by Prof. Maciej S. Lesniak, University of Chicago Medical Center) were cultured in MEM with penicillin/streptomycin and 10% FBS. Normal human astrocytes (NHA) were purchased from Lonza and cultured in astrocyte growth media (Lonza) supplemented with rhEGF; Insulin, Ascorbic Acid, GA-1000, L-Glutamine and 5% FBS. HeLa cells (provided by Dr. Ronald Rock, University of Chicago) were grown in DMEM pencillin/streptomycin and with 10% FBS.
(§2) Confocal Microscopy: For each sample, 10^4 U87 cells were seeded on an 18 mm cover-slip in MEM with 10% FBS overnight in a 12-well plate, then starved in MEM with 0.1% BSA for 3 hrs. The reagent (SP-sAB conjugate, SP-Fluorophore or sAB only) was filter-sterilized, diluted to the desired final concentration in MEM 0.1% BSA and added directly to the live cells in each well for 2 hrs. Untreated cells served as a negative control. Following incubation with the reagent, the cells were washed with PBS and fixed in 4% p-formaldehyde. The cells were permeablized in TBS-Tween and blocked with 10% Normal Goat Serum for 1 hr. Actin filaments were stained with FITC-phalloidin (1:250 dilution), or TRITC-phalloidin (1:3000 dilution) for 1 hr at room temperature. Nuclei were stained with DAPI (10 μg/mL) or Hoechst reagent (Invitrogen, 1:2000) for 5 minutes at room temperature. […]

[2] = system: HeLa cells transfected with a plasmid coding for the NK-1 receptor; test: confocal microscopy of NK-1 receptor-mediated internalization in transfected HeLa cells; format: cell-based, human
Experimental: (§3) NK-1 receptor transfection: A plasmid coding for the human NK-1 receptor in the mammalian expression vector pCDNA3(+) (provided by Dr. Robert Lefkowitz, Duke University) was transfected into HeLa cells using Lipofectamine 2000 according to manufacturer protocol, with 1 ng of the plasmid for each well containing 10^4 HeLa cells seeded on an 18 mm cover-slip in a 12-well plate.
Confocal Microscopy: For each sample, 10^4 U87 cells were seeded on an 18 mm cover-slip in MEM with 10% FBS overnight in a 12-well plate, then starved in MEM with 0.1% BSA for 3 hrs. The reagent (SP-sAB conjugate, SP-Fluorophore or sAB only) was filter-sterilized, diluted to the desired final concentration in MEM 0.1% BSA and added directly to the live cells in each well for 2 hrs. Untreated cells served as a negative control. Following incubation with the reagent, the cells were washed with PBS and fixed in 4% p-formaldehyde. The cells were permeablized in TBS-Tween and blocked with 10% Normal Goat Serum for 1 hr. Actin filaments were stained with FITC-phalloidin (1:250 dilution), or TRITC-phalloidin (1:3000 dilution) for 1 hr at room temperature. Nuclei were stained with DAPI (10 μg/mL) or Hoechst reagent (Invitrogen, 1:2000) for 5 minutes at room temperature. Samples were mounted using ProLong Gold reagent (Invitrogen). Confocal microscopy images were collected using a Leica SP2 with Alexa 488, Alexa 555 or Cy3 and […] or Cy5 excited with the 488 nm laser, the 543 nm laser and the 633 laser, respectively. Multicolored images were overlaid using the imageJ software.
The ability to specifically deliver functional biomolecular agents to living cells can be a powerful research tool for studying molecular processes. Introduction of the NK-1 receptor is sufficient for the uptake of fluorescently-labeled SP. […] HeLa cells transfected with a plasmid coding for the NK-1 receptor were incubated for 2 hours with 20 nM fluorescently-labeled SP. The cells were then stained with phalloidin for visualization of actin structure.

U87 glioblastoma cells [3] = test: confocal microscopy of internalization in U87 glioblastoma cells; format: cell-based, human; conditions: FIG. 3b
Experimental: as §1, §2

[4] = system: HeLa cells transfected with the NK-1 receptor; test: delivery of a polynucleotide encoding GFP; format: cell-based, human; conditions: 200 pM, FIG. 7
Experimental: as §3
To determine if other types of agents could also be delivered to cells expressing NK-1 receptors in accordance with the invention, HeLa cells transfected with the NK-1 receptor as described above, were incubated with an SP-polynucleotide conjugate. The polynucleotide encoded GFP operably linked to a promoter functional in the cells. The polynucleotide was also fluorescently tagged with Alexa-647 such that delivery of the polynucleotide into the cell could be monitored as well as expression of GFP.

U87 glioblastoma cells [5] = test: MTS proliferation / cell viability assay; format: cell-based, human; conditions: 10 nM or 20 nM, 48 hrs, FIG. 5a
Experimental: MTS proliferation assay: U87 cells were seeded in 96-well plates at density 5000 cells/well in 0.1 mL of growth media. Cells were attached overnight and starved for 3 hours. Cells were stimulated with 20 nM sAB27-SP conjugate for 3, 5, 9, 24 and 48 hours, and SP or sAB27 alone for 48 hours in starving media. 20 μL of the MTS-based CellTiter 96 Aqueous One Solution reagent was added to each well. The plate was incubated in a humidified, 5% CO2 atmosphere until color was developed and the absorbance was recorded at 490 nm.
Due to the actin-bundling activity of sAB-27, its effect on the viability of U87 glioblastoma cells following SP-mediated delivery was investigated. Live U87 cells were treated with either 10 nM or 20 nM of the SP-sAB-27 conjugate and a cell viability assay was carried out at different time points up to 48 hrs after treatment. The viability of cells incubated with the conjugates was compared with that of cells treated with SP alone or sAB-27 alone, as well as untreated cells.

With “SP-Alexa555: variant of SP with a cysteine at position 3 carrying a thiol-reactive fluorophore; positive control for NK-1 receptor-mediated internalization (RPC(Alexa555)PQQFFGLM; ends and bridges not checked)” the “internalization by NHA” value ([1]; 100 nM (figure legend)) was “no internalization was observed”, the “internalization by normal astrocytes” value ([1]; 200 nM, 2 hr) was “undetectable” and the “internalization by transfected cells” value ([2]; 20 nM, 2 hours, confocal microscopy) was “rapid internalization”. For the same substance, the “effect on actin structure” value ([2]; 100 nM, FITC-phalloidin, FIG. 2a,b) was “actin structure is unaffected”, the “internalization by U87 cells” value (U87 glioblastoma cells [3]; 100 nM (figure legend)) was “internalization” and the “internalization by U87 cells” value (U87 glioblastoma cells [3]; 200 nM, 2 hr) was “readily internalize”.

With “SP-polynucleotide conjugate: SP conjugated to an Alexa-647 tagged polynucleotide encoding GFP operably linked to a promoter (RPKPQQFFGLM; ends and bridges not checked; also: conjugated to Alexa-647 tagged GFP-encoding polynucleotide, site not given here; UniProt P20366 58-68, looked up)” the “internalization of the Alexa-647 tagged polynucleotide” value ([4]; 2 hours) was “internalized after 2 hours”, the “localization of the internalized polynucleotide” value ([4]; 2 hours) was “at least a portion co-localized with the nucleus of the cell” and the “expression of GFP” value ([4]; 24 hours, confocal microscopy) was “expression of GFP after 24 hours”.

“SP: 11-amino acid peptide that is rapidly internalized upon binding to the NK-1 receptor; used alone as control (RPKPQQFFGLM; ends and bridges not checked; UniProt P20366 58-68, looked up)” was tested, and the cell viability (U87 glioblastoma cells [5]) was “no effect on viability” and the “localization with actin / effect on actin structure” value ([2]; 20 nM, phalloidin staining, FIG. 2) was “no specific localization with actin and no apparent effect on the structure of the actin filaments”.
